Measured values from patent US20260285850A1, “SUBSTITUTED OXAZOLIDINONES AND IMIDAZOLINONES AS HERBICIDES” (FMC CORPORATION, priority 2023, published 2026).

Experiments:
Assay type in all cases: in vivo
[1] = system: green foxtail (Setaria viridis); experiment: Test A postemergence application, visual injury rating 0-100
Procedure, shortened: (§1)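 Compounds formulated in a non-phytotoxic solvent with surfactant are sprayed onto soil of freshly planted loam-sand pots ahead of emergence, or onto emerged plants 2-10 cm tall. After a 10-day greenhouse period, each species is scored visually for injury against untreated controls.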

[2] = system: horseweed (Erigeron canadensis); experiment: as above
Procedure, shortened: as §1

[3] = system: soybean (Glycine max); experiment: as above
Procedure, shortened: as §1

[4] = system: palmer (palmer amaranth, palmer pigweed, Amaranthus palmeri); experiment: as above
Procedure, shortened: as §1

[5] = system: kochia (Bassia scoparia); experiment: as above
Procedure, shortened: as §1

[6] = system: corn (Zea mays); experiment: as above
Procedure, shortened: as §1

[7] = system: ryegrass, Italian (italian ryegrass, Lolium multiflorum); experiment: as above
Procedure, shortened: as §1

[8] = system: wheat (Triticum aestivum); experiment: as above
Procedure, shortened: as §1

[9] = system: ragweed (common ragweed, Ambrosia artemisiifolia); experiment: as above
Procedure, shortened: as §1

[10] = system: blackgrass (Alopecurus myosuroides); experiment: as above
Procedure, shortened: as §1

[11] = system: oat, wild (wild oat, Avena fatua); experiment: as above
Procedure, shortened: as §1

[12] = system: barnyardgrass (Echinochloa crus-galli); experiment: as above
Procedure, shortened: as §1

[13] = system: galium (catchweed bedstraw, Galium aparine); experiment: as above
Procedure, shortened: as §1

[14] = system: ducksalad (Heteranthera limosa); experiment: Test B flooded paddy test, visual plant response rating 0-100; settings: 250 g ai/ha, Flood, applied to paddy water, evaluated after 13 days
Procedure, shortened: (§2)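 Treatment occurs at the 2-leaf stage by adding compound to floodwater standing 3 cm above the soil, a level kept for the whole test. Plants stay in the greenhouse 13 days before visual comparison with controls.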

[15] = system: barnyardgrass (Echinochloa crusgalli); experiment: as above; settings: 250 g ai/ha, Flood, applied to paddy water, evaluated after 13 days
Procedure, shortened: as §2

[16] = system: rice (Oryza sativa); experiment: as above; settings: 250 g ai/ha, Flood, applied to paddy water, evaluated after 13 days
Procedure, shortened: as §2

[17] = system: sedge, umbrella (small-flower umbrella sedge, Cyperus difformis); experiment: as above; settings: 250 g ai/ha, Flood, applied to paddy water, evaluated after 13 days
Procedure, shortened: as §2

[18] = system: green foxtail (Setaria viridis); experiment: Test A preemergence soil spray, visual injury rating 0-100; settings: 10 days
Procedure, shortened: as §1

[19] = system: soybean (Glycine max); experiment: as above; settings: 10 days
Procedure, shortened: as §1

[20] = system: palmer (palmer amaranth, palmer pigweed, Amaranthus palmeri); experiment: as above; settings: 10 days
Procedure, shortened: as §1

[21] = system: kochia (Bassia scoparia); experiment: as above; settings: 10 days
Procedure, shortened: as §1

[22] = system: corn (Zea mays); experiment: as above; settings: 10 days
Procedure, shortened: as §1

[23] = system: ryegrass, Italian (italian ryegrass, Lolium multiflorum); experiment: as above; settings: 10 days
Procedure, shortened: as §1

[24] = system: wheat (Triticum aestivum); experiment: as above; settings: 10 days
Procedure, shortened: as §1

[25] = system: ragweed (common ragweed, Ambrosia artemisiifolia); experiment: as above; settings: 10 days
Procedure, shortened: as §1

[26] = system: blackgrass (Alopecurus myosuroides); experiment: as above; settings: 10 days
Procedure, shortened: as §1

[27] = system: oat, wild (wild oat, Avena fatua); experiment: as above; settings: 10 days
Procedure, shortened: as §1

[28] = system: barnyardgrass (Echinochloa crus-galli); experiment: as above; settings: 10 days
Procedure, shortened: as §1

[29] = 62 g ai/ha, postemergence, 10 days, 0 = no effect, 100 = complete control
[30] = Postemergence, 16 g ai/ha, greenhouse 10 days, 0 no effect, 100 complete control
[31] = 62 g ai/ha, 0 = no effect, 100 = complete control

## C=CC1(C(=O)NC2CC(C(=O)OC)C2)CN(c2cc(F)cc(F)c2)C(=O)O1 (stereo not shown) [Compound 173]
[1]; [29]
  Foxtail, Green plant response rating (0-100): 90
[1]; [30]
  Foxtail, Green plant response rating (0 to 100 scale): 90
[2]; [29]
  Horseweed plant response rating (0-100): 50
[2]; [30]
  Horseweed plant response rating (0 to 100 scale): 0
[3]; [29]
  Soybean plant response rating (0-100): 50
[3]; [30]
  Soybean plant response rating (0 to 100 scale): 50
[4]; [29]
  Pigweed, Palmer plant response rating (0-100): 90
[4]; [30]
  Pigweed, Palmer plant response rating (0 to 100 scale): 90
[5]; [29]
  Kochia plant response rating (0-100): 90
[5]; [30]
  Kochia plant response rating (0 to 100 scale): 90
[6]; [29]
  Corn plant response rating (0-100): 100
[6]; [30]
  Corn plant response rating (0 to 100 scale): 100
[7]; [29]
  Ryegrass, Italian plant response rating (0-100): 90
[7]; [30]
  Ryegrass, Italian plant response rating (0 to 100 scale): 80
[8]; [29]
  Wheat plant response rating (0-100): 90
[8]; [30]
  Wheat plant response rating (0 to 100 scale): 90
[9]; [29]
  Ragweed plant response rating (0-100): 80
[9]; [30]
  Ragweed plant response rating (0 to 100 scale): 0
[10]; [29]
  Blackgrass plant response rating (0-100): 90
[10]; [30]
  Blackgrass plant response rating (0 to 100 scale): 90
[11]; [29]
  Oat, Wild plant response rating (0-100): 90
[11]; [30]
  Oat, Wild plant response rating (0 to 100 scale): 90
[12]; [29]
  Barnyardgrass plant response rating (0-100): 90
[12]; [30]
  Barnyardgrass plant response rating (0 to 100 scale): 80
[13]; [29]
  Galium plant response rating (0-100): 80
[13]; [30]
  Galium plant response rating (0 to 100 scale): 80
[14]
  Plant response rating, Ducksalad (0 to 100 scale, 0 is no effect and 100 is complete control): 95
[15]
  Plant response rating, Barnyardgrass (0 to 100 scale, 0 is no effect and 100 is complete control): 90
[16]
  Plant response rating, Rice (0 to 100 scale, 0 is no effect and 100 is complete control): 75
[17]
  Plant response rating, Sedge, Umbrella (0 to 100 scale, 0 is no effect and 100 is complete control): 100
[18]; 16 g ai/ha, 0 to 100 scale
  Foxtail, Green plant response rating: 90
[18]; [31]
  Foxtail, Green plant response rating (0-100): 100
[19]; 16 g ai/ha, 0 to 100 scale
  Soybean plant response rating: 30
[19]; [31]
  Soybean plant response rating (0-100): 70
[20]; 16 g ai/ha, 0 to 100 scale
  Pigweed, Palmer plant response rating: 20
[20]; [31]
  Pigweed, Palmer plant response rating (0-100): 90
[21]; 16 g ai/ha, 0 to 100 scale
  Kochia plant response rating: 10
[21]; [31]
  Kochia plant response rating (0-100): 80
[22]; 16 g ai/ha, 0 to 100 scale
  Corn plant response rating: 50
[22]; [31]
  Corn plant response rating (0-100): 90
[23]; 16 g ai/ha, 0 to 100 scale
  Ryegrass, Italian plant response rating: 80
[23]; [31]
  Ryegrass, Italian plant response rating (0-100): 90
[24]; 16 g ai/ha, 0 to 100 scale
  Wheat plant response rating: 90
[24]; [31]
  Wheat plant response rating (0-100): 100
[25]; 16 g ai/ha, 0 to 100 scale
  Ragweed plant response rating: 0
[25]; [31]
  Ragweed plant response rating (0-100): 0
[26]; 16 g ai/ha, 0 to 100 scale
  Blackgrass plant response rating: 90
[26]; [31]
  Blackgrass plant response rating (0-100): 90
[27]; 16 g ai/ha, 0 to 100 scale
  Oat, Wild plant response rating: 70
[27]; [31]
  Oat, Wild plant response rating (0-100): 90
[28]; 16 g ai/ha, 0 to 100 scale
  Barnyardgrass plant response rating: 40
[28]; [31]
  Barnyardgrass plant response rating (0-100): 100
